The numbers were not newly measured in patent US20230303507A1, “RIGID C[…] AS POTENT MODULATORS OF CANNABINOID RECEPTORS AND USES THEREOF” (priority 2020, published 2023), which cites them from elsewhere.

For the data set, the target named is CB2 (Homo sapiens, UniProt P34972).
CB2, sequence (P34972 whole entry, species assumed): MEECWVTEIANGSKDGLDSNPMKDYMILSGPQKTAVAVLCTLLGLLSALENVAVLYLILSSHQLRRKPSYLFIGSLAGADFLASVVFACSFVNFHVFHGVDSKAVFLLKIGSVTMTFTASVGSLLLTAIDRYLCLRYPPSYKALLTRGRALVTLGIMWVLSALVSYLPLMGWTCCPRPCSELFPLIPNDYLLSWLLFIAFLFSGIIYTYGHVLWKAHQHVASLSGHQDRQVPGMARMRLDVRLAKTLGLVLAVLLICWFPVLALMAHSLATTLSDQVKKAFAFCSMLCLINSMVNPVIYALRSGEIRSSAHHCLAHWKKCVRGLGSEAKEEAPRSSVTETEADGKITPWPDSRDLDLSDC

As to `C=C(C)[C@@H]1CCC(C)=C[C@H]1c1c(O)cc(CCCCC)cc1O` [CBD, cannabidiol], the “mode of action on CB2” value is listed as “weak inverse agonist”.
Consider `CCCCCc1cc(O)c2c(c1)OC(C)(C)[C@@H]1CCC(C)=C[C@@H]21` [THC, delta-9-tetrahydrocannabinol], for which the “mode of action on CB2” value was “partial agonist”.
